Assay results: ChEMBL document CHEMBL1126702, “Modeling the anticancer action of some retinoid compounds by making use of the OASIS method” (J Med Chem, 1993)

Legend:
[1] = Partition coefficient (logP); format: physicochemical; conditions: octanol/water
[2] = test system: Cricetinae gen. sp.; assay: Tested for anticancer activity against hamster tracheal cells; format: functional, Trachea

| SMILES | logP ([1]; read-out: logP) | -Log ED50 [2] | logP [1] |
| --- | --- | --- | --- |
| CC(=O)C1=C(/C=C/C(C)=C/C=C/C(C)=C/C=O)C(C)(C)CC1 | 6.63 | 9.3 | – |
| CCC(=O)/C=C(C)/C=C/C=C(C)/C=C/c1c(C)cc(O)c(C)c1C | 7.34 | 7 | – |
| CC(=O)/C=C(C)/C=C/C=C(C)/C=C/C1(O)C(C)(C)CCCC1(C)O (stereo not drawn) | 4.2 | 6.7 | – |
| CC(=O)/C=C(C)/C=C/C=C(C)/C=C/C12OC1(C)CCCC2(C)C (stereo not drawn) | 5.08 | 8.52 | – |
| CC1=C(/C=C/C(C)=C/C=C/C(C)=C/C=O)C(C)(C)CCC1=O | 6.63 | 9.15 | – |
| COc1cc(C)c(/C=C/C(C)=C/C=C/C(C)=C/C=O)c(C)c1C | 6.57 | 8.3 | – |
| CC(/C=C/C=C(C)/C=C/c1ccco1)=C\C=O | 3.69 | 6 | – |
| CCC(=O)/C=C(C)/C=C/C=C(C)/C=C/c1c(C)cc(OC)c(C)c1C | 7.22 | 7.7 | – |
| COC(C)C1=C(/C=C/C(C)=C/C=C/C(C)=C/C=O)C(C)(C)CC1 (stereo not drawn) | 6.58 | 9.7 | – |
| CC(/C=C/C=C(C)/C=C/c1ccccc1)=C\C=O | 5.37 | 6 | – |
| CC(/C=C/C=C(C)/C=C/c1cccnc1)=C\C=O | 4.69 | 6.52 | – |
| CC(/C=C/C=C(C)/C=C/C1C(C)CCCC1(C)C)=C\C=O (stereo not drawn) | 7.29 | <9 | – |
| CCC(=O)/C=C(C)/C=C/C=C(C)/C=C/C1=C(C)CCCC1(C)C | 8.12 | 9.3 | – |
| CC(=O)/C=C(C)/C=C/C=C(C)/C=C/C1=C(C)CCCC1(C)C | 7.63 | 9.52 | – |
| CC1=C(/C=C/C(C)=C/C=C/C(C)=C/C=O)C(C)(C)CCC1O (stereo not drawn) | 6.1 | 9.15 | – |
| CC(/C=C/C=C(C)/C=C/c1ccsc1)=C\C=O | 4.13 | >8 | – |
| CC(/C=C/C=C(C)/C=C/C12OC1(C)CCCC2(C)C)=C\C=O (stereo not drawn) | 4.91 | 8.7 | – |
| CC1=CCCC(C)(C)C1/C=C/C(C)=C/C=C/C(C)=C/C=O (stereo in doubt; 16) | – | <8 | 7.09 |
| CC1=CCCC(C)(C)C1/C=C/C(C)=C/C=C/C(C)=C/C=O (stereo in doubt; 19) | 7.47 | 10.52 | – |
